Assay results taken from patent US20250034212A1, “PEPTIDE” (PEPTIDREAM INC., priority 2021, published 2025).
Starred links: 1 amine or outer side, 2 acyl side, 3 side chain; linkers in the order of their positions; H or OH if unused. Positions of bridges follow the written chain, without caps; N, C: chain ends. Non-standard residues stand in square brackets, D forms with d. Residues, ends and D or L forms follow the SMILES beside them. Groups on a side chain read outwards from the residue. *: point of attachment. Meglumine = CN(C[C@H](O)[C@@H](O)[C@H](O)[C@H](O)CO)*; Trp(6-aza) = N[C@@H](Cc1c[nH]c2cnccc12)C(=O)O; Trp(7-aza) = N[C@@H](Cc1c[nH]c2ncccc12)C(=O)O; Piperazinyl(4-CH2COOH) = O=C(O)CN1CCN(*)CC1; 1Nal = N[C@@H](Cc1cccc2ccccc12)C(=O)O; Gly(NCH2CH2Ph) = O=C(O)CNCCc1ccccc1; 4Pal = N[C@@H](Cc1ccncc1)C(=O)O; CO = O=C([*:1])[*:2]

Target: T1, recombinant human TGF-β1 (Homo sapiens, UniProt P01137)
T1 construct: purchased R&D systems
Experiment: SBE reporter assay in SBE reporter-HEK293 cells, TGF-β1 stimulation
Assay type: cell-based
Settings: TGF-β1 0.13 nM, 18 hours; for inhibition at 75 pM: peptide 0.075 nM; for inhibition at 0.00075 µM: peptide 0.75 nM; for inhibition at 0.0075 µM: peptide 7.5 nM; for inhibition at 0.075 µM: peptide 75.0 nM
Description: The inhibitory activity of the peptide can be calculated without limitation while the maximum signal induced by TGF-β is set to 0% inhibition and no stimulation is set to 100% inhibition. When the peptide is used at an appropriate concentration, for example, at the optimal concentration, the inhibitory activity is not limited but the inhibition is 5% or more, 10% or more, 20% or more, 30% or more, 40% or more, 50% or more, 60% or more, 70% or more, 80% or more, or 90% or more.
In this Example, the TGF-β1 inhibitory activity of the peptide of the present invention consisting of the amino acid sequence set forth in SEQ ID NOs: 2-33 synthesized in Examples 1 to 5 and 7 was evaluated by an SBE reporter assay using the SBE reporter-HEK293 cell system (BP Bioscience) as follows.
SBE reporter-HEK293 cells were cultured in E-MEM (Wako) containing 10% FBS (Sigma). The cells were detached using Accutase (Innovative Cell Technologies), suspended in E-MEM containing 0.5% FBS, seeded onto a 96-well plate(s) at a concentration of 45,000 cells per well, and cultured overnight. The next day, the peptide was added and allowed to stand for 20 min, and recombinant human TGF-β1 (R&D systems) or recombinant human TGF-β2 (R&D systems) was then added at 0.13 nM and cultured for 18 hours.
Thereafter, luciferase assay ONE-Glo reagent was added to each well and the plate was shaken for 5 min. A SpectraMax Paradigm multimode microplate reader (Molecular Devices) was then used for signal detection. The obtained signals were analyzed by GraphPad Prism. The inhibitory activity of the peptide was calculated while the maximum signal induced by TGF-β was set to 0% inhibition and no stimulation was set to 100% inhibition.

T1 sequence (P01137 279-390 limits assumed): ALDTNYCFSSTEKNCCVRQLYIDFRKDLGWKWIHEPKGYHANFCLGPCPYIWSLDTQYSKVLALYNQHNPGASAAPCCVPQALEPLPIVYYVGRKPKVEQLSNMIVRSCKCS

Compound | inhibition at 75 pM [%] | inhibition at 0.00075 µM [%] | inhibition at 0.0075 µM [%] | inhibition at 0.075 µM [%] | inhibition at 62 pM (peptide 0.062 nM) [%] | inhibition at 0.000185 µM (peptide 0.185 nM) [%] | inhibition at 0.00056 µM (peptide 0.56 nM) [%] | inhibition at 0.0017 µM (peptide 1.7 nM) [%] | inhibition at 0.005 µM (peptide 5.0 nM) [%] | inhibition at 0.015 µM (peptide 15.0 nM) [%]
CC(C)[C@@H]1NC(=O)CN(CCc2ccccc2)C(=O)[C@H](CC(=O)O)NC(=O)[C@H](CC(=O)O)NC(=O)[C@H](Cc2ccncc2)NC(=O)[C@H](C(C)C)NC(=O)[C@H](CC(N)=O)NC(=O)[C@H](C(C)C)NC(=O)[C@H](C(C)C)NC(=O)[C@H](Cc2cccc3ccccc23)NC(=O)[C@H](Cc2ccccc2)NC(=O)CSC[C@@H](C(=O)NCC(N)=O)NC(=O)[C@H](CCCCNC(=O)N(C)C[C@H](O)[C@@H](O)[C@H](O)[C@H](O)CO)NC(=O)[C@H](Cc2c[nH]cn2)NC(=O)[C@H](Cc2ccc(O)cc2)NC(=O)[C@H](Cc2cccc3ccccc23)NC1=O [TGFb1_016] ({CH2CO}-F[1Nal]VVNV[4Pal]DD[Gly(NCH2CH2Ph)]V[1Nal]YHK([CO-Meglumine])CG-NH2; thioether N-16) | 6.1 | 61 | 97.6 | 100 |  |  |  |  |  | 
CC(C)[C@@H]1NC(=O)CN(CCc2ccccc2)C(=O)[C@H](CC(=O)O)NC(=O)[C@H](CC(=O)O)NC(=O)[C@H](Cc2ccncc2)NC(=O)[C@H](C(C)C)NC(=O)[C@H](CC(N)=O)NC(=O)[C@H](C(C)C)NC(=O)[C@H](C(C)C)NC(=O)[C@H](Cc2c[nH]c3ncccc23)NC(=O)[C@H](Cc2ccccc2)NC(=O)CSC[C@@H](C(=O)NCC(N)=O)NC(=O)[C@H](C(C)C)NC(=O)[C@H](Cc2c[nH]cn2)NC(=O)[C@H](Cc2ccc(O)cc2)NC(=O)[C@H](Cc2cccc3ccccc23)NC1=O [TGFb1_008] ({CH2CO}-F[Trp(7-aza)]VVNV[4Pal]DD[Gly(NCH2CH2Ph)]V[1Nal]YHVCG-NH2; thioether N-16) | 3.8 | 56.8 | 94.6 | 98.4 |  |  |  |  |  | 
CC(C)[C@@H]1NC(=O)CN(CCc2ccccc2)C(=O)[C@H](CC(=O)O)NC(=O)[C@H](CC(=O)O)NC(=O)[C@H](Cc2ccc(O)cc2)NC(=O)[C@H](C(C)C)NC(=O)[C@H](CC(N)=O)NC(=O)[C@H](C(C)C)NC(=O)[C@H](C(C)C)NC(=O)[C@H](Cc2c[nH]c3cnccc23)NC(=O)[C@H](Cc2ccccc2)NC(=O)CSC[C@@H](C(=O)NCC(N)=O)NC(=O)[C@H](C(C)C)NC(=O)[C@H](Cc2c[nH]cn2)NC(=O)[C@H](Cc2ccc(O)cc2)NC(=O)[C@H](Cc2cccc3ccccc23)NC1=O [TGFb1_004] ({CH2CO}-F[Trp(6-aza)]VVNVYDD[Gly(NCH2CH2Ph)]V[1Nal]YHVCG-NH2; thioether N-16) | 0 | 0.9 | 70.1 | 94.9 |  |  |  |  |  | 
CC(C)[C@@H]1NC(=O)CN(CCc2ccccc2)C(=O)[C@H](CCCCNC(=O)N(C)C[C@H](O)[C@@H](O)[C@H](O)[C@H](O)CO)NC(=O)[C@H](CC(=O)O)NC(=O)[C@H](Cc2ccncc2)NC(=O)[C@H](C(C)C)NC(=O)[C@H](CC(N)=O)NC(=O)[C@H](C(C)C)NC(=O)[C@H](C(C)C)NC(=O)[C@H](Cc2cccc3ccccc23)NC(=O)[C@H](Cc2ccccc2)NC(=O)CSC[C@@H](C(=O)NCC(N)=O)NC(=O)[C@H](C(C)C)NC(=O)[C@H](Cc2c[nH]cn2)NC(=O)[C@H](Cc2ccc(O)cc2)NC(=O)[C@H](Cc2cccc3ccccc23)NC1=O [TGFb1_015] ({CH2CO}-F[1Nal]VVNV[4Pal]DK([CO-Meglumine])[Gly(NCH2CH2Ph)]V[1Nal]YHVCG-NH2; thioether N-16) | 0 | 76.9 | 98.7 | 98.4 |  |  |  |  |  | 
CC(C)[C@@H]1NC(=O)CN(CCc2ccccc2)C(=O)[C@H](CC(=O)O)NC(=O)[C@H](CC(=O)O)NC(=O)[C@H](Cc2ccncc2)NC(=O)[C@H](C(C)C)NC(=O)[C@H](CC(N)=O)NC(=O)[C@H](CCCCNC(=O)N(C)C[C@H](O)[C@@H](O)[C@H](O)[C@H](O)CO)NC(=O)[C@H](C(C)C)NC(=O)[C@H](Cc2cccc3ccccc23)NC(=O)[C@H](Cc2ccccc2)NC(=O)CSC[C@@H](C(=O)NCC(N)=O)NC(=O)[C@H](CCC(=O)O)NC(=O)[C@H](Cc2c[nH]cn2)NC(=O)[C@H](Cc2ccc(O)cc2)NC(=O)[C@H](Cc2cccc3ccccc23)NC1=O [TGFb1_028] ({CH2CO}-F[1Nal]VK([CO-Meglumine])NV[4Pal]DD[Gly(NCH2CH2Ph)]V[1Nal]YHECG-NH2; thioether N-16) |  |  |  |  | 0.94 | 6.17 | 20.4 | 47.6 | 73.9 | 91.7

Results, then the compound that gave them:

inhibition at 75 pM [%] | inhibition at 0.00075 µM [%] | inhibition at 0.0075 µM [%] | inhibition at 0.075 µM [%] | inhibition at 62 pM (peptide 0.062 nM) [%] | inhibition at 0.000185 µM (peptide 0.185 nM) [%] | inhibition at 0.00056 µM (peptide 0.56 nM) [%] | inhibition at 0.0017 µM (peptide 1.7 nM) [%] | inhibition at 0.005 µM (peptide 5.0 nM) [%] | inhibition at 0.015 µM (peptide 15.0 nM) [%] | Compound
1.6 | 65.2 | 97.3 | 98.8 |  |  |  |  |  |  | CC(C)[C@@H]1NC(=O)CN(CCc2ccccc2)C(=O)[C@H](CC(=O)O)NC(=O)[C@H](CC(=O)O)NC(=O)[C@H](Cc2ccc(O)cc2)NC(=O)[C@H](C(C)C)NC(=O)[C@H](CC(N)=O)NC(=O)[C@H](C(C)C)NC(=O)[C@H](C(C)C)NC(=O)[C@H](Cc2c[nH]c3ccccc23)NC(=O)[C@H](Cc2ccccc2)NC(=O)CSC[C@@H](C(=O)NCC(N)=O)NC(=O)[C@H](C(C)C)NC(=O)[C@H](Cc2c[nH]cn2)NC(=O)[C@H](Cc2ccc(O)cc2)NC(=O)[C@H](Cc2cccc3ccccc23)NC1=O [TGFb1_003] ({CH2CO}-FWVVNVYDD[Gly(NCH2CH2Ph)]V[1Nal]YHVCG-NH2; thioether N-16)
6.1 | 76.3 | 97.9 | 100 |  |  |  |  |  |  | CC(C)[C@@H]1NC(=O)CN(CCc2ccccc2)C(=O)[C@H](CCCCNC(=O)N2CCN(CC(=O)O)CC2)NC(=O)[C@H](CC(=O)O)NC(=O)[C@H](Cc2ccncc2)NC(=O)[C@H](C(C)C)NC(=O)[C@H](CC(N)=O)NC(=O)[C@H](C(C)C)NC(=O)[C@H](C(C)C)NC(=O)[C@H](Cc2cccc3ccccc23)NC(=O)[C@H](Cc2ccccc2)NC(=O)CSC[C@@H](C(=O)NCC(N)=O)NC(=O)[C@H](C(C)C)NC(=O)[C@H](Cc2c[nH]cn2)NC(=O)[C@H](Cc2ccc(O)cc2)NC(=O)[C@H](Cc2cccc3ccccc23)NC1=O [TGFb1_011] ({CH2CO}-F[1Nal]VVNV[4Pal]DK([CO-Piperazinyl(4-CH2COOH)])[Gly(NCH2CH2Ph)]V[1Nal]YHVCG-NH2; thioether N-16)
0.4 | 47 | 90.8 | 98.9 |  |  |  |  |  |  | CC(C)[C@@H]1NC(=O)CN(CCc2ccccc2)C(=O)[C@H](CC(=O)O)NC(=O)[C@H](CC(=O)O)NC(=O)[C@H](Cc2ccc(O)cc2)NC(=O)[C@H](C(C)C)NC(=O)[C@H](CC(N)=O)NC(=O)[C@H](C(C)C)NC(=O)[C@H](C(C)C)NC(=O)[C@H](Cc2c[nH]c3ncccc23)NC(=O)[C@H](Cc2ccccc2)NC(=O)CSC[C@@H](C(=O)NCC(N)=O)NC(=O)[C@H](C(C)C)NC(=O)[C@H](Cc2c[nH]cn2)NC(=O)[C@H](Cc2ccc(O)cc2)NC(=O)[C@H](Cc2cccc3ccccc23)NC1=O [TGFb1_005] ({CH2CO}-F[Trp(7-aza)]VVNVYDD[Gly(NCH2CH2Ph)]V[1Nal]YHVCG-NH2; thioether N-16)
22.2 | 61 | 97.6 | 99.9 |  |  |  |  |  |  | CC(C)[C@@H]1NC(=O)CN(CCc2ccccc2)C(=O)[C@H](CCCCNC(=O)N(C)C[C@H](O)[C@@H](O)[C@H](O)[C@H](O)CO)NC(=O)[C@H](CC(=O)O)NC(=O)[C@H](Cc2ccncc2)NC(=O)[C@H](C(C)C)NC(=O)[C@H](CC(N)=O)NC(=O)[C@H](C(C)C)NC(=O)[C@H](C(C)C)NC(=O)[C@H](Cc2c[nH]c3ncccc23)NC(=O)[C@H](Cc2ccccc2)NC(=O)CSC[C@@H](C(=O)NCC(N)=O)NC(=O)[C@H](C(C)C)NC(=O)[C@H](Cc2c[nH]cn2)NC(=O)[C@H](Cc2ccc(O)cc2)NC(=O)[C@H](Cc2cccc3ccccc23)NC1=O [TGFb1_018] ({CH2CO}-F[Trp(7-aza)]VVNV[4Pal]DK([CO-Meglumine])[Gly(NCH2CH2Ph)]V[1Nal]YHVCG-NH2; thioether N-16)
2 | 63.8 | 97.9 | 99.9 |  |  |  |  |  |  | CC(C)[C@@H]1NC(=O)CN(CCc2ccccc2)C(=O)[C@H](CC(=O)O)NC(=O)[C@H](CC(=O)O)NC(=O)[C@H](Cc2ccncc2)NC(=O)[C@H](C(C)C)NC(=O)[C@H](CC(N)=O)NC(=O)[C@H](CCCCNC(=O)N2CCN(CC(=O)O)CC2)NC(=O)[C@H](C(C)C)NC(=O)[C@H](Cc2cccc3ccccc23)NC(=O)[C@H](Cc2ccccc2)NC(=O)CSC[C@@H](C(=O)NCC(N)=O)NC(=O)[C@H](C(C)C)NC(=O)[C@H](Cc2c[nH]cn2)NC(=O)[C@H](Cc2ccc(O)cc2)NC(=O)[C@H](Cc2cccc3ccccc23)NC1=O [TGFb1_010] ({CH2CO}-F[1Nal]VK([CO-Piperazinyl(4-CH2COOH)])NV[4Pal]DD[Gly(NCH2CH2Ph)]V[1Nal]YHVCG-NH2; thioether N-16)
